In patent publication US20210177795A1 (priority 2017, published 2021):
Entries after “also recorded” stand apart in the source; their conditions may differ.

Legend:
[1] = mouse, in vivo
[2] = system: Udorn influenza virus (A/Udorn/307/72 (H3N2)); parameters: species or system C57BL/6 mice; conditions: mouse, in vivo
[3] = system: MCP-1; parameters: species or system C57BL/6 mice; conditions: mouse, in vivo
[4] = system: KC; parameters: species or system C57BL/6 mice; conditions: mouse, in vivo
[5] = system: IL-6; parameters: species or system C57BL/6 mice; conditions: mouse, in vivo
[6] = system: IL-10; parameters: species or system C57BL/6 mice; conditions: mouse, in vivo
[7] = system: cytokines/chemokines; parameters: species or system C57BL/6 mice; conditions: mouse, in vivo
[8] = system: RANTES; parameters: species or system C57BL/6 mice; conditions: mouse, in vivo

CCCCCCCCCCCCCCCC(=O)OCC(CSC[C@H](N)C(=O)N[C@@H](CO)C(=O)N[C@@H](CO)C(=O)NCCOCCOCCOCCOCCOCCOCCOCCOCCOCCOCCOCCOCCC(=O)NCC(N)=O)OC(=O)CCCCCCCCCCCCCCC (stereo partly drawn) [INNA-003, PEG-S—S-Pam2Cys]
greatest weight loss [1]: 1.89%±1.15%

PEG-[Arg]4-Ser-Ser-Pam2Cys [INNA-002]
antiviral effect across doses [2]: dose-dependent antiviral-effect | progression of influenza virus to the lungs [2]: inhibited; also recorded: partial inhibition

CCC(=O)OCC(CSCC(N)C(=O)NC(CO)C(=O)NCCOCC(=O)NCC(N)=O)OC(=O)CC (stereo not drawn) [INNA-006, PEG-S-Pam2Cys]
MCP-1 level in nasal turbinates [3]: ~66 pg/mL | fold increase of MCP-1 in nasal turbinates vs saline [3]: 7 fold | progression of influenza virus to the lungs [2]: significantly inhibited; also recorded: partial inhibition | greatest weight loss [1]: 1.87%±1.33% | KC in the lungs compared to the saline control [4]: no significance | KC level in lungs [4]: ~14 pg/mL | KC level in nasal turbinates [4]: ~83 pg/mL | KC levels in the lung [4]: ~16.3 pg/mL | fold increase of KC in nasal turbinates vs saline [4]: 2 fold | fold increase of KC secretion in lungs compared to INNA-003 [4]: 2 fold | fold increase of KC secretion in lungs compared to saline control [4]: 3 fold | IL-6 in nasal turbinates, fold lower with 3 doses vs single dose [5]: approximately 25 fold | fold increase in IL-6 levels in nasal turbinates vs saline [5]: 98 fold | IL-10 level in nasal turbinates [6]: ~17 pg/mL | fold increase of IL-10 in nasal turbinates vs saline [6]: 2 fold | cytokine/chemokine levels in nasal turbinates, lungs and sera, 3 repeat doses vs single dose [7]: marked decrease | cytokine/chemokine profiles in lungs, trachea and sera, single vs triple dose regimes [7]: no discernible differences | proinflammatory cytokines and chemokines including IL-6, KC & MCP-1 in nasal turbinates vs saline [7]: increases were detected in a dose-dependent manner | RANTES level in nasal turbinates [8]: ~141 pg/mL | RANTES secretion in nasal turbinates compared to INNA-003 [8]: increased RANTES secretion | fold increase of RANTES in nasal turbinates vs saline [8]: 1.9 fold
